This note sets out measurements from patent US20050215490A1, “Polyene polyketides and methods of treating bacterial infections” (Ecopia BioSciences, Inc., priority 2003, published 2005).

Data set [1] deals with S. aureus MSSA (ATCC™ 6538P). As to the kind of experiment: Minimal bactericidal concentration (NCCLS M26-A). It is filed as cell-based, Staphylococcus aureus. Particulars: for MBC: Staphylococcus aureus, more than 99.9% growth inhibition. Here is the method: (§1) Minimal bactericidal concentration (MBC) was also determined for Compounds 1 and 2. […] MBC were measured against three Staphylococcus strains, namely sp. aureus MSSA (ATCC™ 6538P), sp. aureus MRSA-hVISA (ATCC™ 700699) and sp. epidermidis (ATCC™ 12228). The results, shown in Table 6 below, were consistent with bactericidal activity (MBC/MIC ratio were of 1 to 2).
(§2) MBC determination was performed according to the NCCLS guideline M26-A: Methods for Determining Bactericidal Activity of Antimicrobial Agents (NCCLS document […], ISBN 1-56238-394-9; NCCLS, 940 West Valley Road, Suite 1400, Wayne, Pa. 19087-1898 USA), the content of which is incorporated herein by reference.
(§3) Microdilutions broth assays were performed using the same procedure as for MIC determination, Example 6. 24 hours post-incubation, cells were collected in wells corresponding to the MIC, 2×MIC and 4×MIC. Collected cells were plated on agar media. MBC were determined as the drug concentration at which more than 99.9% growth inhibition was observed. As a reference for 100% growth, cells grown in media only were also plated.

The test system of data set [2] is S. aureus MRSA-hVISA (ATCC™ 700699). As to the kind of experiment: Minimal bactericidal concentration (NCCLS M26-A). It is filed as cell-based, Staphylococcus aureus. The settings on record: for MBC: Staphylococcus aureus, more than 99.9% growth inhibition. Here is the method:
as §1, §2, §3

In data set [3] the test system is Staphylococcus aureus NRRL B-313 (ATCC™ 6538P). Kind of data set: MIC at different pH. Format: cell-based. Particulars: S. aureus ATCC 6538P. Here is the method:
Antibacterial activitiy of Compounds.3, 4, 5, 6 and 7 are accomplished using the same method in a panel of bacterial strains and Vancomycin as positive control.
Antibacterial efficacy of Compounds 1, 2, 3, 4, 5 and 6 on bacterial strain Staphylococcus aureus NRRL B-313 (ATCC™ 6538P) was determined at different pH concentrations.

Data set [4] deals with Enterococcus faecalis VRE-2 (ATCC™ 51299). Kind of data set: MIC, broth microdilution (NCCLS M7-A5). The settings on record: E. faecalis ATCC 51299, BHI, 35° C., 18 hours, read-out: MIC. It is filed as cell-based. Here is the method:
(§4) Antibacterial activity of Compounds 1 and 2 (Table 4) was measured by determining the minimal inhibitory concentration (MIC) necessary to obtain a complete inhibition of bacteria growth in eight indicator strains, namely Staphylococcus aureus (ATCC™ 6538P), Staphylococcus aureus MRS3 (ATCC™ 700699), Staphylococcus epidermidis (ATCC™ 12228), Bacillus subtilis (ATCC™ 23857), Bacillus megaterium (ATCC™ 14581), Enterococcus faecalis VRE-1 (ATCC™ 29212), Enterococcus faecalis VRE-2 (ATCC™ 51299) and Micrococcus luteus (ATCC™ 9341). Indicator strains preparation and MIC determination were performed according to the National Committee for Clinical Laboratory Standards (NCCLS) guideline M7-A5 Methods for Dilution Antimicrobial Susceptibility Tests for Bacteria That Grow Aerobically; Approved Standard-Fifth Edition. (NCCLS document M7-A5, ISBN 1-56238-394-9; NCCLS, 940 West Valley Road, Suite 1400, Wayne, Pa. 19087-1898 USA), the content of which is incorporated herein by reference.
(§5) Compounds 1 and 2 were prepared as 100× stock solution in DMSO, with concentrations ranging from 3.2 mg/ml to 0.00625 mg/ml (a two-fold dilution series over […]). An aliquot of each 100× stock solution was diluted 50-fold in test medium described below to give a set of ten (10) 2× solutions ranging from 64 to 0.125 μg/mL. 50 μl of each of the ten 2× solutions was aliquoted into the corresponding well of a 12-well row, with the final well reserved for medium alone control. Each test was made in duplicate.
(§6) Vancomycin (Sigma™) used as positive control compounds, was prepared as 2× stock solutions in sterile, double-distilled water (ddH2O) ranging from 64 μg/ml to […] (a two-fold dilution series over 10 points). An aliquot of 50 μl corresponding to each concentration (at 2×) was then transferred to 96-well microplates to obtain a series of eleven two-fold dilutions.
(§7) An isolated colony of each of the eight indicator strains was used to inoculate tubes containing 3 ml of test medium. Mueller-Hinton test medium was used for Staphylococcus aureus (ATCC™ 6538P), Staphylococcus aureus MRS3 (ATCC™ 700699), Staphylococcus epidermidis (ATCC™ 12228), Bacillus subtilis (ATCC™ 23857), Bacillus megaterium (ATCC™ 14581) and Micrococcus luteus (ATCC™ 9341) indicator strains, and BHI (Brain-Heart Infusion broth) test medium was used for Enterococcus faecalis VRE-1 (ATCC™ 29212) and Enterococcus faecalis VRE-2 (ATCC™ 51299) indicator strains. Cells were grown overnight at 28° C. with shaking. Inoculum density for each indicator strain was adjusted to OD600=0.1 in 5 ml 0.85% saline, then further diluted 1/100 in appropriate medium. 50 μl of the final dilution (in test medium) of each indicator strain was added to each well of a 12-well row. This brings the final dilution of the test article or control compound in solution to 1×. The final inoculum is approximately 5×10^5 CFU/ml.
(§8) The indicator strains were incubated with 11 concentrations of each of Compounds 1 and 2, Vancomycin (Sigma™) control compound and one media alone control. For MIC determination, assay plates were incubated at 35° C. for 18 hours.

For data set [5], the system named is Enterococcus faecalis VRE-1 (ATCC™ 29212). Kind of data set: MIC, broth microdilution (NCCLS M7-A5). It is filed as cell-based. Particulars: E. faecalis ATCC 29212, BHI, 35° C., 18 hours, read-out: MIC. Here is the method: as §4, §5, §6, §7, §8
In a further data set the test system is CD-1 female mice. As to the kind of experiment: in vivo. Particulars: CD-1, mouse. Here is the method:
A. Toxicity: Acute toxicities were determined using CD-1 female mice (supplied by Charles River Laboratories, Wilmington, Mass.) having a bodyweight of 18-25 g, and about 6 weeks of age. Compounds 1 and 2 at doses ranging from 1 to 70 mg/kg (formulated in 20% propylene glycol/water for a total volume of 10 μL/g of weight) were administered intraperitoneal (i.p.) and intravenous (i.v.) to groups of 5 mice (5 mice per concentration, per mode of administration). Two groups of 3 mice were injected with vehicle only. Mice were observed immediately after injection, within 4 hours and once a day for the subsequent days. Acute toxicity studies of Compound 1 in mice indicated no observable effect and high dose tolerability: 70 mg/kg intraperitoneal and 50 mg/kg intravenous (an MTD of 250 mg/kg was also determined by oral administration). […] In vitro Haemolytic activity results are also shown in Table 7, along with the in vivo toxicity and efficacy of Compound 1.

The subject of data set [6] is S. epidermidis (ATCC™ 12228). As to the kind of experiment: Minimal bactericidal concentration (NCCLS M26-A). It is filed as cell-based, Staphylococcus epidermidis. The settings on record: for MBC: Staphylococcus epidermidis, more than 99.9% growth inhibition. Here is the method: as §1, §2, §3

Values after ≈ are worked out from the molar mass of the structure shown. Where two headings read alike, the source gives them in different places.

As to `CC(=CC=CC=CC=CC=CC(C)C(OC1OC(C(=O)O)C(O)C(O)C1O)C(C)=CC(C)CCCC=CC(C)CC=CCCCN(C)C(=N)N)C(=O)NC1=C(O)CCC1=O` (stereo not shown) [Compound 1, 3,4,5-trihydroxy-6-[1-[11-(2-hydroxy-5-oxocyclopent-1-enylcarbamoyl)-1-methyldodeca-2,4,6,8,10-pentaenyl]-2,4,10-trimethyl-16-(N-methyl-guanidino)-hexadeca-2,8,12-trienyloxy]-tetrahydropyran-2-carboxylic acid], the MBC/MIC came out at 2 in data set [1], 1 in data set [2] and 1 in data set [6]. The MBC in data set [1], in data set [2] and in data set [6] was 4 µg/mL (≈ 4.78 µM) each time. For the same molecule, the minimal inhibitory concentration (MIC) in data set [3] (pH 5.0, read-out: MIC) is 0.125 µg/mL (≈ 0.149 µM); in data set [3] (pH 6.0, read-out: MIC), 0.25 µg/mL (≈ 0.299 µM); in data set [3] (pH 7.0, read-out: MIC) it was 1 µg/mL (≈ 1.19 µM); in data set [4] it was 16 µg/mL (≈ 19.1 µM); in data set [5], 8 to 16 µg/mL (≈ 9.56 to 19.1 µM). Moreover, the figures for the “Acute toxicity: dose with no observable effect (high dose tolerability)” value in the data set on CD-1 female mice (ip) and in the data set with CD-1 female mice (iv) were 70 mg/kg and 50 mg/kg, respectively.
`C\C(=C/C=C/C=C/C=C/C=C/C(C)C(OC1OC(C(=O)O)C(O)C(O)C1O)/C(C)=C/C(C)CCC/C=C/C(C)C/C=C/CCCNC(=N)N)C(=O)NC1=C(O)CCC1=O` (stereo not shown) [Compound 2, 6-{16-guanidino-1-[11-(2-hydroxy-5-oxocyclopent-1-enylcarbamoyl)-1-methyldodeca-2,4,6,8,10-pentaenyl]-2,4,10-trimethylhexadeca-2,8,12-trienyloxy}-3,4,5-trihydroxy-tetrahydro-pyran-2-carboxylic acid]: the results for the MBC/MIC in data set [1], in data set [2] and in data set [6] were 2, 2 and 1, respectively. The minimum bactericidal concentration (MBC) in data set [1] turned out to be 2 µg/mL (≈ 2.43 µM); in data set [2], 2 µg/mL (≈ 2.43 µM); in data set [6], 1 µg/mL (≈ 1.22 µM). The MIC in data set [3] (pH 5.0, read-out: MIC) was 0.0625 µg/mL (≈ 0.0759 µM); in data set [3] (pH 6.0, read-out: MIC), 0.125 µg/mL (≈ 0.152 µM); in data set [3] (pH 7.0, read-out: MIC), 1 µg/mL (≈ 1.22 µM); in data set [4] it was 16 µg/mL (≈ 19.4 µM); in data set [5] it was 16 µg/mL (≈ 19.4 µM). The “Acute toxicity: dose with no observable effect (high dose tolerability)” value in the data set on CD-1 female mice (iv) is recorded as 25 mg/kg.
